Experimental findings from ChEMBL document CHEMBL6078684, “Discovery of a Novel Non-invasive AR PROTAC Degrader for the Topical Treatment of Androgenetic Alopecia” (J Med Chem, 2024) are described below.

Data set [1] has as its target T1, Protein cereblon/Androgen receptor (Homo sapiens, UniProt P10275+Q96SW2). Put plainly: PROTAC activity at CRBN/AR in human dermal papilla cell assessed as induction of AR degradation measured after 24 hrs by Western blot analysis. The format is cell-based. For orientation: Immunoblotting shows a protein as a band on a membrane.
Target sequence in this assay (P10275 whole entry): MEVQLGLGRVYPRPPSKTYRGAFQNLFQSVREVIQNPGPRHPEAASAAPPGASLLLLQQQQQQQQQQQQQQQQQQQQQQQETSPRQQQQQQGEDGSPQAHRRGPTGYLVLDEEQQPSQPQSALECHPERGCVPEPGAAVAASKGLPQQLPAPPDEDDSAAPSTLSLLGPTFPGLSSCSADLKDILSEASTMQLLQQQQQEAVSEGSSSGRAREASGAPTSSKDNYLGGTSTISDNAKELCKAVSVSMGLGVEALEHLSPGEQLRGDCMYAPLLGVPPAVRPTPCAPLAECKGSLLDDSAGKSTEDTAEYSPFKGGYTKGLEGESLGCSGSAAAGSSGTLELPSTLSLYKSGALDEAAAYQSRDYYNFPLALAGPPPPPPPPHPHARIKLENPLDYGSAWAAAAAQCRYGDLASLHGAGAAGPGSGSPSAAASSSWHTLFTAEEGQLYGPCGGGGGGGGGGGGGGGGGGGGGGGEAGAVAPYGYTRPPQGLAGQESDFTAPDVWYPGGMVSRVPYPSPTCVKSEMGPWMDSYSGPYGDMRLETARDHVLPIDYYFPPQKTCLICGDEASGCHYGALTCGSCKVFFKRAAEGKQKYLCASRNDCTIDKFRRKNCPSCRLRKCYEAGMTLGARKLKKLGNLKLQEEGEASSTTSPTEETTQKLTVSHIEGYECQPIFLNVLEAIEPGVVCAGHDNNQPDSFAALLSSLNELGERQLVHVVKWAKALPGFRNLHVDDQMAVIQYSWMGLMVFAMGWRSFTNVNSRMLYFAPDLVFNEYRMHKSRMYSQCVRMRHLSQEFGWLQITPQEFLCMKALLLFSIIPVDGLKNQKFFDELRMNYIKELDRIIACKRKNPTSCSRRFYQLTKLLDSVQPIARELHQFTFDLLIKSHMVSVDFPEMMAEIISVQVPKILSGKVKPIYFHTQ
Target sequence in this assay (Q96SW2 whole entry): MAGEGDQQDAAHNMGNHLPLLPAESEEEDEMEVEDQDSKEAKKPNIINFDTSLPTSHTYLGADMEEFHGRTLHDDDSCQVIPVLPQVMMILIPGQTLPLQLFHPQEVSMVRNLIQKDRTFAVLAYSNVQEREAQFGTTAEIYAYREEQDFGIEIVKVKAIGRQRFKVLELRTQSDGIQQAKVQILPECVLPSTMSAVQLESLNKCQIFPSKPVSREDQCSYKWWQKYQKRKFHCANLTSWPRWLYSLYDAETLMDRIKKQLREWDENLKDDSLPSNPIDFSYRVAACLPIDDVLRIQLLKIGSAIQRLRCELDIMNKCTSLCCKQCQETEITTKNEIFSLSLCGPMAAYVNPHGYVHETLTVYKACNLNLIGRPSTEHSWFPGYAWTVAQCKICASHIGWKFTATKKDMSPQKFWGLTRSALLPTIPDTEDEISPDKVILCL
Data set [2] deals with T1, Protein cereblon/Androgen receptor. Kind of data set: PROTAC activity at CRBN/AR in human dermal papilla cell assessed as induction of AR degradation by measuring maximal efficacy after 24 hrs by Western blot analysis relative to control. The format is cell-based.
Target sequence in this assay (P10275 whole entry, looked up): as the sequence (P10275 whole entry) above
Target sequence in this assay (Q96SW2 whole entry, looked up): as the sequence (Q96SW2 whole entry) above
Data set [3] shares this target. Kind of data set: PROTAC activity at CRBN/AR in human dermal papilla cell assessed as induction of AR degradation at 500 nM measured after 24 hrs by Western blot analysis. Format: cell-based.
Target sequence in this assay (P10275 whole entry, looked up): as the sequence (P10275 whole entry) above
Target sequence in this assay (Q96SW2 whole entry, looked up): as the sequence (Q96SW2 whole entry) above
Data set [4] shares this target. Put plainly: PROTAC activity at CRBN/AR in human dermal papilla cells assessed as induction of AR degradation at 500 nM in presence of MLN4924 by Western blot analysis. Format: cell-based. The settings on record: Human dermal papilla cell.
Target sequence in this assay (P10275 whole entry, looked up): as the sequence (P10275 whole entry) above
Target sequence in this assay (Q96SW2 whole entry, looked up): as the sequence (Q96SW2 whole entry) above
The target is the same in data set [5]. Put plainly: PROTAC activity at CRBN/AR in human dermal papilla cells assessed as decrease in AR protein level at 1 uM preincubated with testosterone for 24 hrs followed by compound addition and measured after 48 hrs by Western blot analysis. The settings on record: Human dermal papilla cell. Format: cell-based.
Target sequence in this assay (P10275 whole entry, looked up): as the sequence (P10275 whole entry) above
Target sequence in this assay (Q96SW2 whole entry, looked up): as the sequence (Q96SW2 whole entry) above
The target is the same in data set [6]. Put plainly: PROTAC activity at CRBN/AR in human dermal papilla cells assessed as inhibition of TGF-beta1 release by measuring fold change in TGF-beta1 concentration at 1 uM preincubated with testosterone for 24 hrs followed by compound addition and measured after 48 hrs by ELISA relative to enzalutamide. Format: cell-based. Particulars: Human dermal papilla cell. A general note: An ELISA detects its analyte on a solid surface through an enzyme-linked reagent.
Target sequence in this assay (P10275 whole entry, looked up): as the sequence (P10275 whole entry) above
Target sequence in this assay (Q96SW2 whole entry, looked up): as the sequence (Q96SW2 whole entry) above

A short description of data set [7]: Ratio of drug concentration in male ICR mouse skin to heart at 4 mg/ml, TOP measured after 0.5 hrs by LC-MS/MS analysis. Format: ADME, tissue-based. Particulars: in vivo, topical_or_ocular.
Data set [8] is described as follows: AUC (0 to t) in male ICR mouse skin at 4 mg/ml, TOP measured after 12 hrs by LC-MS/MS analysis. The format is ADME, tissue-based, Skin of body. The settings on record: in vivo, topical_or_ocular.
A short description of data set [9]: Ratio of drug concentration in male ICR mouse skin to plasma at 4 mg/ml, TOP measured after 0.25 hrs by LC-MS/MS analysis. Format: ADME, cell-free. Particulars: topical or ocular.
A short description of data set [10]: Ratio of drug concentration in male ICR mouse skin to plasma at 4 mg/ml, TOP measured after 2 hrs by LC-MS/MS analysis. The settings on record: other tissue, topical_or_ocular. Format: ADME, cell-free.
The nature of data set [11]: Ratio of drug concentration in male ICR mouse skin to heart at 4 mg/ml, TOP measured after 12 hrs by LC-MS/MS analysis. The settings on record: in vivo, topical_or_ocular. Format: ADME, tissue-based.
Data set [12] in a line: Ratio of drug concentration in male ICR mouse skin to liver at 4 mg/ml, TOP measured after 0.5 hrs by LC-MS/MS analysis. The settings on record: in vivo, topical_or_ocular. Format: ADME, tissue-based.
The nature of data set [13]: Ratio of drug concentration in male ICR mouse skin to spleen at 4 mg/ml, TOP measured after 0.5 hrs by LC-MS/MS analysis. The settings on record: in vivo, topical_or_ocular. Format: ADME, tissue-based.
Data set [14] is described as follows: Ratio of drug concentration in male ICR mouse skin to spleen at 4 mg/ml, TOP measured after 1 hrs by LC-MS/MS analysis. Format: ADME, tissue-based. Particulars: in vivo, topical_or_ocular.
Data set [15] can be described thus: Ratio of drug concentration in male ICR mouse skin to spleen at 4 mg/ml, TOP measured after 4 hrs by LC-MS/MS analysis. Format: ADME, tissue-based. The settings on record: in vivo, topical_or_ocular.
Data set [16] in a line: Ratio of drug concentration in male ICR mouse skin to lungs at 4 mg/ml, TOP measured after 0.5 hrs by LC-MS/MS analysis. The format is ADME, tissue-based, Skin/Lung. Particulars: in vivo, topical_or_ocular.
The nature of data set [17]: Ratio of drug concentration in male ICR mouse skin to kidney at 4 mg/ml, TOP measured after 0.5 hrs by LC-MS/MS analysis. The format is ADME, tissue-based. Particulars: in vivo, topical_or_ocular.
The nature of data set [18]: Ratio of drug concentration in male ICR mouse skin to kidney at 4 mg/ml, TOP measured after 8 hrs by LC-MS/MS analysis. The format is ADME, tissue-based. The settings on record: in vivo, topical_or_ocular.
Data set [19] deals with Mus musculus. Kind of data set: Hair regeneration efficacy in testosterone induced male C57BL/6 mouse androgenetic alopecia model assessed as earlier pigmentation at 0.1 to 0.4 %, TOP administered once daily for 14 days and measured after 21 days with co-administration of 0.2% testosterone for 28 days by photographic analysis. The format is functional, organism-based. The settings on record: dose 0.1-0.4 %, time 14.0 day.

Data set [20] has as its system Mus musculus. Put plainly: Hair regeneration efficacy in testosterone induced male C57BL/6 mouse androgenetic alopecia model assessed as increase in hair density at 0.4 %, TOP administered once daily for 14 days with co-administration of 0.2% testosterone and measured after 28 days by trichoscope photographic analysis. The settings on record: time 28.0 day. Format: functional, organism-based.

Active and inactive are the calls of the source. No cut-off for these calls is given here.

In the case of `N#Cc1ccc(O[C@H]2CC[C@H](NC(=O)c3ccc(C4CCN(CC5CCCN(c6ccc(C(=O)NC7CCC(=O)NC7=O)cc6)C5)CC4)cc3)CC2)cc1Cl` (stereo not given in full), the DC50 in data set [1] is 262 nM. Further, the Emax in [2] is 63%. Moreover, the Activity entry in [3] is “Active; Maximum Degradation Level Observed”; in [4], “Not active; Compound Activity Dependent On Ubiquitin-Proteosome System”; in data set [5] it was “Active; Most Pronounced Degradation Observed”. In addition, the fold change (FC) in [6] stood at 0.62. Moreover, the Ratio in data set [7] was determined as 119.61; in data set [10], 1098.91; in [11], 274.38; in data set [12], 465.04; in [13], 67.05; in data set [14] it was 472.95. The Ratio in [15] stood at 635.83; in data set [16] it was 54.37; in data set [17], 190.39; in [18] it was 191.71. This compound came in with an AUCt in [8] of 651924.91 ng·h/g. In addition, in [9], the Kp at 0.25 h worked out at 117. The outcome in the data set on Mus musculus [19] and with Mus musculus [20] was Active.

Broadly, the DC50 is the concentration at which degradation of the target reaches its halfway point. As usually defined, the Emax is the maximal effect, on the per cent scale that the assay sets. The term Kp denotes tissue or fluid exposure divided by exposure in the circulation.
